In ChEMBL document CHEMBL5150076, “Discovery of Novel Orally Bioavailable Triazoles with Potent and Broad-Spectrum Antifungal Activity In Vitro and In Vivo” (J Med Chem, 2022):
Values after ≈ are worked out from the molar mass of the structure shown.

Tests used:
Cryptococcus neoformans [1] = test: Antifungal activity against Cryptococcus neoformans H99 incubated for 72 hrs by microbroth dilution method; assay type: functional
Candida albicans [2] = test: Antifungal activity against Candida albicans SC5314 incubated for 24 hrs by microbroth dilution method; assay type: functional
Aspergillus fumigatus [3] = test: Antifungal activity against Aspergillus fumigatus 7544 incubated for 48 hrs by microbroth dilution method; assay type: functional
Candida albicans [4] = test: Antifungal activity against Candida albicans 12#; assay type: functional
Candida albicans [5] = test: Antifungal activity against Candida albicans 25#; assay type: functional
Candida albicans [6] = test: Antifungal activity against Candida albicans 162; assay type: functional
Candida albicans [7] = test: Antifungal activity against Candida albicans 14#; assay type: functional
Candida albicans [8] = test: Antifungal activity against Candida albicans 305; assay type: functional
Candida albicans [9] = test: Antifungal activity against Candida albicans 20#; assay type: functional
Candida albicans [10] = test: Antifungal activity against Candida albicans 28#; assay type: functional
Candida parapsilosis [11] = test: Antifungal activity against Candida parapsilosis 660; assay type: functional; settings: Lodderomyces parapsilosis
Candida parapsilosis [12] = test: Antifungal activity against Candida parapsilosis 90018; assay type: functional; settings: Lodderomyces parapsilosis
Candida parapsilosis [13] = test: Antifungal activity against Candida parapsilosis 700; assay type: functional; settings: Lodderomyces parapsilosis
Candida tropicalis [14] = test: Antifungal activity against Candida tropicalis 112936; assay type: functional
Candida tropicalis [15] = test: Antifungal activity against Candida tropicalis ATCC750; assay type: functional
Pichia kudriavzevii [16] = test: Antifungal activity against Candida krusei 463; assay type: functional
Pichia kudriavzevii [17] = test: Antifungal activity against Candida krusei 629; assay type: functional
Pichia kudriavzevii [18] = test: Antifungal activity against Candida krusei 397; assay type: functional
Pichia kudriavzevii [19] = test: Antifungal activity against Candida krusei 467; assay type: functional
Nakaseomyces glabratus [20] = test: Antifungal activity against Candida glabrata ATCC2001; assay type: functional
[Candida] auris [21] = Antifungal activity against Candida auris 791; assay type: functional; settings: Candidozyma auris
[Candida] auris [22] = Antifungal activity against Candida auris BS12372; assay type: functional; settings: Candidozyma auris
[Candida] auris [23] = Antifungal activity against Candida auris 887; assay type: functional; settings: Candidozyma auris
[Candida] auris [24] = Antifungal activity against Candida auris D12; assay type: functional; settings: Candidozyma auris
[25] = Cytotoxicity against HUVEC assessed as cell viability at 64 ug/ml incubated for 24 hrs by CCK-8 assay; assay type: toxicity, cell-based; settings: human, HUVEC cells, at 64 µg/mL, read-out: Activity
in vitro = settings: human, Caco-2 cells; at 64 µg/mL
Candida albicans [26] = test: Antifungal activity against Candida albicans Y0109; assay type: functional
Candida parapsilosis [27] = test: Antifungal activity against Candida parapsilosis 22019; assay type: functional; settings: Lodderomyces parapsilosis
Cryptococcus neoformans [28] = test: Antifungal activity against Cryptococcus neoformans 32605; assay type: functional
Nakaseomyces glabratus [29] = test: Antifungal activity against Candida glabrata 537; assay type: functional
Trichophyton rubrum = test: Antifungal activity against Trichophyton rubrum cmccftla; assay type: functional
Nannizzia gypsea = test: Antifungal activity against Microsporum gypseum; assay type: functional
[30] = molecular target: T1, Lanosterol 14-alpha demethylase (Candida albicans (strain SC5314 / ATCC MYA-2876) (Yeast), UniProt P10613); test: Inhibition of CYP51 in Candida albicans SC5314 assessed as lanosterol level at 0.0625 ug/ml measured after 12 hrs by GC-MS analysis (reference value: 2.18%); set-up: scale not given: the % may be the effect or the level left; settings: dose 0.0625 µg/ml
T1 sequence (P10613 whole entry): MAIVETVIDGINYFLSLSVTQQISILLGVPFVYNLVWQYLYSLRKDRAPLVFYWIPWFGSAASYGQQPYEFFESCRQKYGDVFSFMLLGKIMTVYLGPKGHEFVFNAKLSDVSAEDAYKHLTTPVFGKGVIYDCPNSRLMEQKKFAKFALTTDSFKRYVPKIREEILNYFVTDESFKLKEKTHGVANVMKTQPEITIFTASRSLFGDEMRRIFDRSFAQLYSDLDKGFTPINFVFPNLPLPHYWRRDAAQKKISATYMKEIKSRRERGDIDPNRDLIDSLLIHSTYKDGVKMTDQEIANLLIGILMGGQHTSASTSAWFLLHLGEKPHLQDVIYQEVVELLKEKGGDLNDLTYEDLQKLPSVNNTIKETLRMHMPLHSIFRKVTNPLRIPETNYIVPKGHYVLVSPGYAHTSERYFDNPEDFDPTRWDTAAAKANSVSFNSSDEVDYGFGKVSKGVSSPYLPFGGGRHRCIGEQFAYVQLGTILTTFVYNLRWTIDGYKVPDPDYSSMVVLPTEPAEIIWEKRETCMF

[31] = molecular target: T1, Lanosterol 14-alpha demethylase; test: Inhibition of CYP51 in Candida albicans SC5314 assessed as ergosterol level at 0.0625 ug/ml measured after 12 hrs by GC-MS analysis (reference value: 72.58%); set-up: scale not given: the % may be the effect or the level left; settings: dose 0.0625 µg/ml
[32] = molecular target: T1, Lanosterol 14-alpha demethylase; test: Inhibition of CYP51 in Candida albicans SC5314 assessed as eburicol level at 0.0625 ug/ml measured after 12 hrs by GC-MS analysis (reference value: 0.00%); set-up: scale not given: the % may be the effect or the level left; settings: dose 0.0625 µg/ml
[33] = molecular target: T1, Lanosterol 14-alpha demethylase; test: Inhibition of CYP51 in Candida albicans SC5314 assessed as sterol level at 0.0625 ug/ml measured after 12 hrs by GC-MS analysis (reference value: 25.23%); set-up: scale not given: the % may be the effect or the level left; settings: dose 0.0625 µg/ml
[34] = Cmax in Sprague-Dawley rat at 5 mg/kg, po by LC-MS analysis; assay type: ADME, organism-based; set-up: dose 5 mg/kg, route po; settings: in vivo
[35] = Tmax in Sprague-Dawley rat at 5 mg/kg, po by LC-MS analysis; assay type: ADME, organism-based; settings: in vivo
[36] = Half life in Sprague-Dawley rat at 2 mg/kg, iv by LC-MS analysis; assay type: ADME, organism-based; settings: in vivo
[37] = Half life in Sprague-Dawley rat at 5 mg/kg, po by LC-MS analysis; assay type: ADME, organism-based; settings: in vivo
[38] = AUC(0 to infinity) in Sprague-Dawley rat at 2 mg/kg, iv by LC-MS analysis; assay type: ADME, organism-based; set-up: time infinity, dose 2 mg/kg, route iv; settings: in vivo
[39] = AUC(0 to infinity) in Sprague-Dawley rat at 5 mg/kg, po by LC-MS analysis; assay type: ADME, organism-based; set-up: time infinity, dose 5 mg/kg, route po; settings: in vivo
[40] = Oral bioavailability in Sprague-Dawley rat at 5 mg/kg by LC-MS analysis; assay type: ADME, organism-based; settings: in vivo
Aspergillus fumigatus [41] = test: Antifungal activity against Aspergillus fumigatus 7544 infected in ICR mouse assessed as survival rate at 20 mg/kg, po qd infected with fungus for 2 hrs prior to compound addition for 7 days and measured for 20 days; assay type: functional; settings: time 20 day
Aspergillus fumigatus [42] = test: Antifungal activity against Aspergillus fumigatus 7544 infected in ICR mouse assessed as survival rate at 60 mg/kg, po qd infected with fungus for 2 hrs prior to compound addition for 7 days and measured for 20 days; assay type: functional; settings: time 20 day
[43] = Induction of hemolysis in rabbit RBC at 64 ug/ml incubated for 1 hr; assay type: toxicity, cell-based, Oryctolagus cuniculus, Erythrocyte; settings: red blood cells, at 64 µg/mL, read-out: Activity

SMILES: CC[C@@H]([C@H](C)O)n1ncn(-c2ccc(N3CCN(c4ccc(OC[C@@H]5CO[C@@](Cn6cncn6)(c6ccc(F)cc6F)C5)cc4)CC3)cc2)c1=O [POSACONAZOLE]
- MIC (Cryptococcus neoformans [1]): 0.5 µg/mL (≈ 0.713 µM)
- MIC (Candida albicans [2]): 0.125 µg/mL (≈ 0.178 µM)
- MIC (Aspergillus fumigatus [3]): 0.5 µg/mL (≈ 0.713 µM)
- MIC (Candida albicans [4]): > 64 µg/mL
- MIC (Candida albicans [5]): > 64 µg/mL
- MIC (Candida albicans [6]): > 64 µg/mL
- MIC (Candida albicans [7]): > 64 µg/mL
- MIC (Candida albicans [8]): > 16 µg/mL
- MIC (Candida albicans [9]): 0.5 µg/mL (≈ 0.713 µM)
- MIC (Candida albicans [10]): 0.5 µg/mL (≈ 0.713 µM)
- MIC (Candida parapsilosis [11]): 0.5 µg/mL (≈ 0.713 µM)
- MIC (Candida parapsilosis [12]): 0.5 µg/mL (≈ 0.713 µM)
- MIC (Candida parapsilosis [13]): 1 µg/mL (≈ 1.43 µM)
- MIC (Candida tropicalis [14]): > 16 µg/mL
- MIC (Candida tropicalis [15]): > 16 µg/mL
- MIC (Pichia kudriavzevii [16]): 2 µg/mL (≈ 2.85 µM)
- MIC (Pichia kudriavzevii [17]): 2 µg/mL (≈ 2.85 µM)
- MIC (Pichia kudriavzevii [18]): 2 µg/mL (≈ 2.85 µM)
- MIC (Pichia kudriavzevii [19]): 2 µg/mL (≈ 2.85 µM)
- MIC (Nakaseomyces glabratus [20]): 2 µg/mL (≈ 2.85 µM)
- MIC ([Candida] auris [21]): ≤ 0.125 µg/mL
- MIC ([Candida] auris [22]): ≤ 0.125 µg/mL
- MIC ([Candida] auris [23]): ≤ 0.125 µg/mL
- MIC ([Candida] auris [24]): ≤ 0.125 µg/mL
- viability at 24 h, 64 ug/ml [25]: 115%
- viability at 24 h, 64 ug/ml (in vitro): 68.3%

SMILES: C[C@@H](c1ncncc1F)[C@](O)(Cn1cncn1)c1ccc(F)cc1F [VORICONAZOLE]
- MIC (Cryptococcus neoformans [1]): 0.0313 µg/mL (≈ 0.0896 µM)
- MIC (Candida albicans [2]): 0.0313 µg/mL (≈ 0.0896 µM)
- MIC (Aspergillus fumigatus [3]): 0.25 µg/mL (≈ 0.716 µM)
- MIC (Candida albicans [26]): 0.0156 µg/mL (≈ 0.0447 µM)
- MIC (Candida parapsilosis [27]): 0.0313 µg/mL (≈ 0.0896 µM)
- MIC (Cryptococcus neoformans [28]): 0.0156 µg/mL (≈ 0.0447 µM)
- MIC (Nakaseomyces glabratus [29]): 0.125 µg/mL (≈ 0.358 µM)
- MIC (Trichophyton rubrum): 0.0625 µg/mL (≈ 0.179 µM)
- MIC (Nannizzia gypsea): 0.25 µg/mL (≈ 0.716 µM)
- MIC (Candida albicans [4]): > 64 µg/mL
- MIC (Candida albicans [5]): > 64 µg/mL
- MIC (Candida albicans [6]): > 64 µg/mL
- MIC (Candida albicans [7]): > 64 µg/mL
- MIC (Candida albicans [8]): > 16 µg/mL
- MIC (Candida albicans [9]): ≤ 0.0313 µg/mL
- MIC (Candida albicans [10]): ≤ 0.0313 µg/mL
- MIC (Candida parapsilosis [11]): ≤ 0.0313 µg/mL
- MIC (Candida parapsilosis [12]): ≤ 0.0313 µg/mL
- MIC (Candida parapsilosis [13]): 0.0313 µg/mL (≈ 0.0896 µM)
- MIC (Candida tropicalis [14]): > 16 µg/mL
- MIC (Candida tropicalis [15]): 8 µg/mL (≈ 22.9 µM)
- MIC (Pichia kudriavzevii [16]): 0.0625 µg/mL (≈ 0.179 µM)
- MIC (Pichia kudriavzevii [17]): 0.0625 µg/mL (≈ 0.179 µM)
- MIC (Pichia kudriavzevii [18]): 0.125 µg/mL (≈ 0.358 µM)
- MIC (Pichia kudriavzevii [19]): 0.125 µg/mL (≈ 0.358 µM)
- MIC (Nakaseomyces glabratus [20]): 0.125 µg/mL (≈ 0.358 µM)
- MIC ([Candida] auris [21]): 2 µg/mL (≈ 5.73 µM)
- MIC ([Candida] auris [22]): 2 µg/mL (≈ 5.73 µM)
- MIC ([Candida] auris [24]): 1 µg/mL (≈ 2.86 µM)
- Activity [30]: 5.38%
- Activity [31]: 1.63%
- Activity [32]: 87.15%
- Activity [33]: 5.84%
- Cmax [34]: 877 ng/mL
- Tmax [35]: 53.4 min
- half-life [36]: 234 min
- half-life [37]: 40.2 min
- AUC(0-inf) [38]: 7200 ng·h/mL
- AUC(0-inf) [39]: 2530 ng·h/mL
- bioavailability [40]: 26%
- Activity (Aspergillus fumigatus [41]): 60%
- Activity (Aspergillus fumigatus [42]): 100%
- viability at 24 h, 64 ug/ml [25]: 93.4%
- hemolysis at 1 h, 64 ug/ml [43]: 1.07%
- viability at 24 h, 64 ug/ml (in vitro): 103%
